Data as given in patent US20070166547A1, “Use of a layer consisting of hydrophobic linear, or two-dimensional polycyclic aromatics as a barrier layer or an encapsulation and electric components constructed with a layer of this type and comprising organic polymers” (priority 2003, published 2007).

Key:
[1] = for comparison; cited from earlier work
[2] = test system: metabolism of nitrogen oxide; assay: Morphine abstinence model: nitrites and nitrates NOX− in blood plasma, liver and brain; assay type: in vivo, rats Wistar
Method: (§1) The experiments were carried out on rats in series of 7 animals on each compound according to the invention. Non-morphinized animal with not administered with compounds according to the invention were used as a control group. […] Then the rats were decapitated, the blood from somnolent arteries was collected in test tubes with solution EDTA as an anticoagulant, centrifuged at 1500 g for 15 minutes at 4° C.
To estimate the intensity of metabolism of nitrogen oxide in rats, quantitative determination of stable metabolites of nitrogen oxide—nitrites and nitrates NOX^− in the blood plasma, supernatanates of the liver and thymus gland, a study was conducted by a spectrometric method, and in the brain supernatanates by a […] method.
The spectrometric method is based the reaction of nitrites with the Griss reagent (a mixture of 2% solution of sulfanilamide and 0.2% N-(1-naphthyl)ethylene diamine. At the first step the nitrite reacts with sulfanilamide with formation of diazonium salt, and then with the second component to form azo dye with an adsorption maximum at 540 nm. For reduction of nitrates into nitrites, a fermentative method was used with bacterial reductase nitrate (Grisham M. B. et al., 1995). The samples of plasma and supernatant of the liver deproteinizated at 100° C. for 5 minutes incubated for 30 minutes at 37° C. in 50.0 mM of HEPES pH 7.4 in the presence of 0.2 unit/ml of Aspergillus reductase nitrate, 5.0 mkM of FAD and 0.1 mM of NAD-Ph. At the end of the reaction lactate dehydrogenase and pyruvate were added for isolation of NAD-Ph interfering with the Griss reaction. Then the Griss reagent was added and after 10-minute incubation the light absorption of the samples was measured at 540 nm. To amount of NOX^− was calculated using sodium nitrate as a standard.
The fluorometric method is based on calculation of the nitrite level by the intensity fluorescence of 2,3-diaminonaphthotriazole, a product of reaction of 2,3-diaminonaphthalene (DAN) and nitrite in an acidic medium (Misko T. R., Schilling R. J., Salvemini D. et al. “A fluorometric assay for the measurement of nitrite of biological samples”. Anal. Biochem., 1993, v. 214, p. 11-16). The brain supernatants deproteinizated at 100° C. were placed in a nitrite regenerating system containing 0.125 unit/ml of nitrate reductases, 25 mkM NADPh and 25 mkM FAD prepared in a 20-mM Tris-HCl buffer with pH 7.6 and incubated for 30 minutes at 37° C. The lactatedehydrogenase/pyruvate system was used for oxidation of the NADPh. Then 316 mkM of the DAN solution in 0.62 M of hydrochloric acids were added and the mixture was incubated for 10 minutes in darkness.
280 mM of NaOH were added for stabilization of the fluorescence of the formed 2,3-diaminonaphthotriazole. The fluorescence intensity was measured in the spectrofluorimeter Hitachi F-3000 at a wavelength of excitation of 365 nm and an emission of 405 nm. The concentration of NOX^− in the brain was calculated by means of a standard solution of sodium nitrate.

thymus [3] = assay: Morphine abstinence model: thymus condition; assay type: in vivo, rats; details: morphinized rats then compound
Method: The effect of the compounds according to the invention on the condition of the thymus of the rats was also investigated: a control group, an experimental group of morphinized animals and an experimental group of animals were first morphinized and then injected with the compounds according to the invention. The experiment was carried out similarly to that described above.

[4] = test system: adenosine-sensitive receptors of thrombocytes; assay: ADP-induced aggregation of thrombocytes in vitro (Born method); assay type: cell-based, rabbit; details: 3 min incubation, ADP 10^−5 M
Method: The compounds according to the invention were studied for the effect of aggregation of thrombocytes induced by a preliminary introduction of a solution of an aggregation inductor with a competing introduction of the compounds according to the invention.
The aggregation of thrombocytes was studied by the Born method based on determination of the changes in the optical density of plasma enriched with thrombocytes after its incubation with an aggregation inductor.
Adenozinediphosphoric acid (ADP) was selected as an aggregation inductor, which in fact is an aggregation generator. Use was made of a sample (registration number 885) of the Sigma Diagnostics Company (USA) in final concentration of 10^−5 M.
The experiments were carried out on male rabbits of the “Chinchilla” breed having a mass of 2.7±0.3 kg. 18-24 hours prior to the experiment they were deprived of feed while preserving free access to water.
To obtain plasma enriched with thrombocytes, blood was taken from a cut of a marginal vein of the rabbit ear, the sample was stabilized with 3.8% of sodium citrate solution in a ratio of 9:1 and centrifuged at 200 g (1000 rev/min) for 10 minutes. The top supernatant layer enriched with thrombocytes was transferred by an automatic dropper into a silicone test tube and kept at 37° C. The plasma enriched with thrombocytes contained, on the average, […]. If this content exceeded the specified 3×10^8 blood platelets in 1 liter, this sample was diluted to the necessary concentration with plasma deprived of thrombocytes, which was obtained by centrifuging blood at 650 g during 10 minutes.
The measurements of the optical density of the samples were made on two-channel aggregometer of the “Chronolog” Company (USA). A flask containing 490 mkl of plasma rich with thrombocytes was placed in a device, into which a magnetic agitator covered with Teflon was lowered. The index of maximum amplitude of aggregation (MA) in percent of a fall of the plasma optical density under effect of the aggregation inductor was recorded. The control index MA of plasma was compared with the MA of plasma incubated for 3 minutes with different concentrations of the compounds: from 10^−3 to 10^−7 in vitro experiments or with plasma obtained 15, 30, 60 and 120 minutes after intravenous administration of different doses of the compounds in vivo experiments.
The process of aggregation of thrombocytes was recorded with the help of a computer; on the monitor screen the there were depicted curves reflecting changes of the optical density of the plasma enriched which was taken as a standard 100% compared to the optical density of the non-thrombocyte plasma taken for 0% content of thrombocytes.
Under in vitro conditions a flask was filled with blood plasma enriched with thrombocytes, to which an aggregation inductor ADP was added at a concentration of 10^−5 M, incubated for 3 minutes, and then the compounds according to the invention were introduced directly into the flask. Their action by aggregation of thrombocytes was studied after 3-minute incubation in a wide range of concentrations from 10^−3 to 10^−7 M to minimum concentration of 10^−7 M not inducing no effect of suppressing the aggregation.

thymus [5] = assay: Morphine abstinence model: thymus condition; assay type: in vivo, rats; details: compound alone
[6] = test system: synthase of nitrogen oxide (NOC); assay: Morphine abstinence model: activity of synthase of nitrogen oxide (radiometric, [3H]L-citrulline); assay type: in vivo, rats Wistar
[7] = test system: indicator enzymes in blood plasma; assay: Morphine abstinence model: indicator enzymes AST, ALT, γ-GTP in blood plasma; assay type: in vivo, rats Wistar
Method: as §1
To estimate possible hepatoprotective action of the compounds according to the invention under conditions of development of an oxidizing stress in the liver cells, effect of these compounds on the most important biochemical blood indexes, in particular, on the content in blood plasma of indicator enzyme of aspartateaminotransferase (AST), alanineaminotransferase (ALT), γ-glutamiletranspeptidase (γ-GTP) was investigated. The content of enzymes was estimated by their catalyzing activity in blood plasma.
The activity of AST, ALT and γ-GTP was determined by means of diagnostic sets DiaSys, Germany.

[8] = compound alone 20.0 mg/kg intramuscularly
[9] = morphinized rats then compound 20.0 mg/kg intramuscularly

SMILES: NC(=O)c1ccc[n+]([C@@H]2O[C@H](COP(=O)([O-])OP(=O)(O)OC[C@H]3O[C@@H](n4cnc5c(N)ncnc54)[C@H](O)[C@@H]3O)[C@@H](O)[C@H]2O)c1 [NAD^+]
- E1/2 of electrochemical reduction of coenzyme [1]: −0.32 V

SMILES: Cc1cc2nc3c(=O)[nH]c(=O)nc-3n(C[C@H](O)[C@H](O)[C@H](O)COP(=O)(O)OP(=O)(O)OC[C@H]3O[C@@H](n4cnc5c(N)ncnc54)[C@H](O)[C@@H]3O)c2cc1C [FAD^+]
- E1/2 of electrochemical reduction of coenzyme [1]: −0.05 V

SMILES: O=c1[nH][nH]c(=O)c2ncccc12.[Li] [Compound 6, lithium salt of pyrido[2,3-d]-6H-pyridazine-5,8-dione]
- Nitrites in blood plasma, Control + Compound [2, 8]: 15.83 ± 1.21 mkmol/ml
- Nitrites in brain, Cortex of cerebrum, Control + Compound [2, 8]: 4.59 ± 0.44 nmol/mg of protein
- Nitrites in brain, Hypothalamus, Control + Compound [2, 8]: 6.94 ± 0.67 nmol/mg of protein
- Nitrites in brain, Mesencephalon, Control + Compound [2, 8]: 7.01 ± 0.82 nmol/mg of protein
- Nitrites in liver, Control + Compound [2, 8]: 0.245 ± 0.010 nmol/mg of protein
- Nitrites in blood plasma, Control + Morphine + compound [2, 9]: 15.86 ± 1.20 mkmol/ml
- Nitrites in brain, Cortex of cerebrum, Control + Morphine + compound [2, 9]: 5.12 ± 0.18 nmol/mg of protein
- Nitrites in brain, Hypothalamus, Control + Morphine + compound [2, 9]: 6.72 ± 0.94 nmol/mg of protein
- Nitrites in brain, Mesencephalon, Control + Morphine + compound [2, 9]: 5.76 ± 0.94 nmol/mg of protein
- Nitrites in liver, Control + Morphine + compound [2, 9]: 0.294 ± 0.02 nmol/mg of protein
- Nitrites, thymus Supernatant, Administration of morphine and compound (thymus [3]): 0.419 ± 0.02 nmol/mg of protein
- Thymus mass, Administration of morphine and compound (thymus [3]): 207 ± 14 mg
- MA - fall of optical density of plasma, % to the standard ([4]; 10^−3 M): 50.0 ± 1.9 %
- MA - fall of optical density of plasma, % to the standard ([4]; 10^−4 M): 53.3 ± 2.2 %
- MA - fall of optical density of plasma, % to the standard ([4]; 10^−5 M): 47.4 ± 2.0 %
- MA - drop of optical density, % compared to control ([4]; 10^−6 M): 51.2 ± 3.2%
- MA - drop of optical density, % compared to control ([4]; 10^−7 M): 50.7 ± 3.2%
- Nitrites, thymus Supernatant, Administration of compounds (thymus [5]): 0.424 ± 0.04 nmol/mg of protein
- Thymus mass, Administration of compounds (thymus [5]): 242 ± 17 mg
- Activity of NOC, Hypothalamus, Control + Compound [6, 8]: 5.93 ± 0.27 pmol/min/mg of protein
- Activity of NOC, Mesencephalon, Control + Compound [6, 8]: 2.84 ± 0.31 pmol/min/mg of protein
- Activity of NOC, Hypothalamus, Control + Morphine + compound [6, 9]: 5.24 ± 0.24 pmol/min/mg of protein
- Activity of NOC, Mesencephalon, Control + Morphine + compound [6, 9]: 1.99 ± 0.31 pmol/min/mg of protein
- ALT, Ci, mE/l, Control + compound [7, 8]: 114.5 ± 1.13 mE/l
- AST, Ci, mE/l, Control + compound [7, 8]: 176.18 ± 3.26 mE/l
- γ-GTP, Ci, mE/l, Control + compound [7, 8]: 8.27 ± 2.12 mE/l
- ALT, Ci, mE/l, control + Morphine + Compound [7, 9]: 122.44 ± 2.01 mE/l
- AST, Ci, mE/l, control + Morphine + Compound [7, 9]: 198.34 ± 9.32 mE/l
- γ-GTP, Ci, mE/l, control + Morphine + Compound [7, 9]: 12.52 ± 2.02 mE/l
